Where two headings read alike, the source gives them in different places.

Format in all cases: cell-based
The test system of one assay is Venturia inaequalis. Kind of assay: Spore germination test. Particulars: VI, 48 hours. Put shortly: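 Compound from acetone stock mixed into water agar at 40, 10, 2.5 and 1 ppm; plated quadrants inoculated with spore suspension in sterile water. Incubation 48 hours at 24° C, then percentage of germinated spores counted and converted to a germination rating.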
In the next assay the test system is Cladosporium cucumerinum. Kind of assay: Spore germination test. Particulars: CC, 48 hours. Put shortly:
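Compound in acetone mixed into water agar at 40, 10, 2.5 and 1 ppm; plates seeded with spore suspension and incubated 48 hours at 24 °C. Percentage germinated spores counted and converted into a germination rating.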

A further assay relates to Phytophthora infestans. Particulars: PI, 48 hours.

For `O=c1c(Cl)nsnc1Oc1ccc(Cl)cc1Cl` [Compound 17, 3-chloro-5-(2,4-dichlorophenoxy)-4H--1,2,6-thiadiazin-4-one], the “Spore Germination Rating” value in the assay with Venturia inaequalis (1.0 ppm) is reported as 0 (0-10); in the assay on Venturia inaequalis (2.5 ppm), 0 (0-10); with Venturia inaequalis (10 ppm) it was 0 (0-10); in the assay with Venturia inaequalis (40 ppm), 0 (0-10); in the assay with Cladosporium cucumerinum (1.0 ppm) it was 4 (80-100); with Cladosporium cucumerinum (2.5 ppm), 0 (0-10). Besides, the “Spore Germination Rating” value was 0 (0-10) with Cladosporium cucumerinum (10 ppm); 0 (0-10) in the assay with Cladosporium cucumerinum (40 ppm); 3 (60-80) in the assay on Phytophthora infestans (1.0 ppm); 0 (0-10) in the assay on Phytophthora infestans (2.5 ppm); 0 (0-10) with Phytophthora infestans (10 ppm); 0 (0-10) in the assay on Phytophthora infestans (40 ppm).

As for `O=c1c(Cl)nsnc1Oc1c(Cl)cccc1Cl` [Compound 18, 3-chloro-5-(2,6-dichlorophenoxy)-4H--1,2,6-thiadiazin-4-one], the “Spore Germination Rating” value with Venturia inaequalis (1.0 ppm) is reported as 1 (10-40); in the assay on Venturia inaequalis (2.5 ppm), 0 (0-10); with Venturia inaequalis (10 ppm) it was 0 (0-10); with Venturia inaequalis (40 ppm), 0 (0-10); in the assay on Cladosporium cucumerinum (1.0 ppm), 4 (80-100); with Cladosporium cucumerinum (2.5 ppm) it was 0 (0-10). Besides, the “Spore Germination Rating” value in the assay with Cladosporium cucumerinum (10 ppm) is listed as 0 (0-10); with Cladosporium cucumerinum (40 ppm), 0 (0-10); in the assay on Phytophthora infestans (1.0 ppm), 3 (60-80); in the assay with Phytophthora infestans (2.5 ppm), 0 (0-10); in the assay on Phytophthora infestans (10 ppm) it was 0 (0-10); in the assay on Phytophthora infestans (40 ppm), 0 (0-10).

In the case of `O=c1c(Cl)nsnc1Oc1cccc(Cl)c1Cl` [Compound 19, 3-chloro-5-(2,3-dichlorophenoxy)-4H--1,2,6-thiadiazin-4-one], the “Spore Germination Rating” value in the assay with Venturia inaequalis (1.0 ppm) is 1 (10-40); with Venturia inaequalis (2.5 ppm) it was 0 (0-10); with Venturia inaequalis (10 ppm) it was 0 (0-10); in the assay with Venturia inaequalis (40 ppm) it was 0 (0-10); with Cladosporium cucumerinum (1.0 ppm), 2 (40-60); with Cladosporium cucumerinum (2.5 ppm), 0 (0-10). Further, the “Spore Germination Rating” value in the assay on Cladosporium cucumerinum (10 ppm) was 0 (0-10); in the assay on Cladosporium cucumerinum (40 ppm), 0 (0-10); with Phytophthora infestans (1.0 ppm) it was 3 (60-80); with Phytophthora infestans (2.5 ppm) it was 0 (0-10); with Phytophthora infestans (10 ppm) it was 0 (0-10); in the assay on Phytophthora infestans (40 ppm) it was 0 (0-10).

In the case of `O=c1c(Cl)nsnc1Oc1cc(Cl)cc(Cl)c1` [Compound 20, 3-chloro-5-(3,5-dichlorophenoxy)-4H--1,2,6-thiadiazin-4-one], the “Spore Germination Rating” value in the assay on Venturia inaequalis (1.0 ppm), with Venturia inaequalis (2.5 ppm), in the assay on Venturia inaequalis (10 ppm), with Venturia inaequalis (40 ppm), in the assay on Cladosporium cucumerinum (1.0 ppm) and in the assay with Cladosporium cucumerinum (2.5 ppm) was 0 (0-10) throughout. Moreover, the “Spore Germination Rating” value in the assay with Cladosporium cucumerinum (10 ppm), in the assay with Cladosporium cucumerinum (40 ppm), in the assay on Phytophthora infestans (1.0 ppm), with Phytophthora infestans (2.5 ppm), in the assay on Phytophthora infestans (10 ppm) and with Phytophthora infestans (40 ppm) was 0 (0-10) in each case.

Take `Cc1cccc(Oc2nsnc(Cl)c2=O)c1` [Compound 21, 3-chloro-5-(3-methylphenoxy)-4H--1,2,6-thiadiazin-4-one]: the “Spore Germination Rating” value in the assay on Venturia inaequalis (1.0 ppm) is reported as 4 (80-100); with Venturia inaequalis (2.5 ppm), 3 (60-80); in the assay on Venturia inaequalis (10 ppm) it was 0 (0-10); with Venturia inaequalis (40 ppm), 0 (0-10); with Cladosporium cucumerinum (1.0 ppm), 1 (10-40); in the assay on Cladosporium cucumerinum (2.5 ppm), 0 (0-10). In addition, the “Spore Germination Rating” value with Cladosporium cucumerinum (10 ppm) was 0 (0-10); in the assay on Cladosporium cucumerinum (40 ppm), 0 (0-10); with Phytophthora infestans (1.0 ppm) it was 4 (80-100); in the assay with Phytophthora infestans (2.5 ppm), 1 (10-40); in the assay on Phytophthora infestans (10 ppm) it was 0 (0-10); in the assay with Phytophthora infestans (40 ppm) it was 0 (0-10).

For `Cc1ccccc1Oc1nsnc(Cl)c1=O` [Compound 22, 3-chloro-5-(2-methylphenoxy)-4H--1,2,6-thiadiazin-4-one], the “Spore Germination Rating” value in the assay with Venturia inaequalis (1.0 ppm), with Venturia inaequalis (2.5 ppm), in the assay with Venturia inaequalis (10 ppm), with Venturia inaequalis (40 ppm), in the assay on Cladosporium cucumerinum (1.0 ppm) and with Cladosporium cucumerinum (2.5 ppm) was 0 (0-10) in each case. The “Spore Germination Rating” value in the assay with Cladosporium cucumerinum (10 ppm), in the assay on Cladosporium cucumerinum (40 ppm), with Phytophthora infestans (1.0 ppm), in the assay with Phytophthora infestans (2.5 ppm), with Phytophthora infestans (10 ppm) and in the assay with Phytophthora infestans (40 ppm) was 0 (0-10) in each case.

For `Cc1ccc(Oc2nsnc(Cl)c2=O)c(C)c1` [Compound 23, 3-chloro-5-(2,4-dimethylphenoxy)-4H--1,2,6-thiadiazin-4-one], the “Spore Germination Rating” value in the assay with Venturia inaequalis (1.0 ppm) is 4 (80-100); in the assay with Venturia inaequalis (2.5 ppm), 3 (60-80); in the assay on Venturia inaequalis (10 ppm), 1 (10-40); in the assay on Venturia inaequalis (40 ppm) it was 0 (0-10); in the assay on Cladosporium cucumerinum (1.0 ppm), 4 (80-100); with Cladosporium cucumerinum (2.5 ppm), 1 (10-40). In addition, the “Spore Germination Rating” value is listed as 0 (0-10) with Cladosporium cucumerinum (10 ppm); 0 (0-10) in the assay on Cladosporium cucumerinum (40 ppm); 4 (80-100) in the assay with Phytophthora infestans (1.0 ppm); 2 (40-60) in the assay on Phytophthora infestans (2.5 ppm); 2 (40-60) in the assay with Phytophthora infestans (10 ppm); 0 (0-10) in the assay on Phytophthora infestans (40 ppm).

For the compound `Cc1cccc(C)c1Oc1nsnc(Cl)c1=O` [Compound 24, 3-chloro-5-(2,6-dimethylphenoxy)-4H--1,2,6-thiadiazin-4-one], the “Spore Germination Rating” value is 2 (40-60) in the assay on Venturia inaequalis (1.0 ppm); 0 (0-10) in the assay on Venturia inaequalis (2.5 ppm); 0 (0-10) in the assay with Venturia inaequalis (10 ppm); 0 (0-10) in the assay with Venturia inaequalis (40 ppm); 0 (0-10) in the assay with Cladosporium cucumerinum (1.0 ppm); 0 (0-10) with Cladosporium cucumerinum (2.5 ppm). Moreover, the “Spore Germination Rating” value is recorded as 0 (0-10) in the assay with Cladosporium cucumerinum (10 ppm); 0 (0-10) in the assay with Cladosporium cucumerinum (40 ppm); 4 (80-100) with Phytophthora infestans (1.0 ppm); 2 (40-60) in the assay with Phytophthora infestans (2.5 ppm); 1 (10-40) with Phytophthora infestans (10 ppm); 0 (0-10) in the assay on Phytophthora infestans (40 ppm).

For the compound `Cc1cc(C)cc(Oc2nsnc(Cl)c2=O)c1` [Compound 25, 3-chloro-5-(3,5-dimethylphenoxy)-4H--1,2,6-thiadiazin-4-one], the “Spore Germination Rating” value in the assay with Venturia inaequalis (1.0 ppm) was 4 (80-100); in the assay with Venturia inaequalis (2.5 ppm), 0 (0-10); with Venturia inaequalis (10 ppm) it was 2 (40-60); with Venturia inaequalis (40 ppm), 0 (0-10); in the assay on Cladosporium cucumerinum (1.0 ppm), 0 (0-10); with Cladosporium cucumerinum (2.5 ppm), 0 (0-10). For the same compound, the “Spore Germination Rating” value with Cladosporium cucumerinum (10 ppm) was 0 (0-10); with Cladosporium cucumerinum (40 ppm) it was 0 (0-10); in the assay on Phytophthora infestans (1.0 ppm) it was 4 (80-100); in the assay on Phytophthora infestans (2.5 ppm), 1 (10-40); with Phytophthora infestans (10 ppm), 0 (0-10); in the assay with Phytophthora infestans (40 ppm) it was 0 (0-10).

On to `Nc1ccc(Oc2nsnc(Cl)c2=O)cc1` [Compound 26, 5-(4-aminophenoxy)-3-chloro-4H--1,2,6-thiadiazin-4-one], for which the “Spore Germination Rating” value with Venturia inaequalis (1.0 ppm) was 4 (80-100); in the assay on Venturia inaequalis (2.5 ppm), 4 (80-100); in the assay on Venturia inaequalis (10 ppm), 4 (80-100); in the assay with Venturia inaequalis (40 ppm), 1 (10-40); with Cladosporium cucumerinum (1.0 ppm) it was 1 (10-40); in the assay with Cladosporium cucumerinum (2.5 ppm), 0 (0-10). Moreover, the “Spore Germination Rating” value is reported as 0 (0-10) with Cladosporium cucumerinum (10 ppm); 0 (0-10) in the assay with Cladosporium cucumerinum (40 ppm); 4 (80-100) in the assay with Phytophthora infestans (1.0 ppm); 4 (80-100) in the assay with Phytophthora infestans (2.5 ppm); 4 (80-100) in the assay with Phytophthora infestans (10 ppm); 2 (40-60) in the assay with Phytophthora infestans (40 ppm).

Regarding `CNC(=O)Nc1ccc(Oc2nsnc(Cl)c2=O)cc1` [Compound 28, 3-chloro-5-[4-(3-methylureido)-phenoxy]-4H--1,2,6-thiadiazin-4-one], the “Spore Germination Rating” value was 4 (80-100) in the assay with Venturia inaequalis (1.0 ppm); 4 (80-100) with Venturia inaequalis (2.5 ppm); 2 (40-60) in the assay on Venturia inaequalis (10 ppm); 3 (60-80) in the assay with Venturia inaequalis (40 ppm); 2 (40-60) with Cladosporium cucumerinum (1.0 ppm); 2 (40-60) in the assay on Cladosporium cucumerinum (2.5 ppm). Further, the “Spore Germination Rating” value in the assay on Cladosporium cucumerinum (10 ppm) is given as 1 (10-40); with Cladosporium cucumerinum (40 ppm) it was 0 (0-10); with Phytophthora infestans (1.0 ppm), 4 (80-100); in the assay on Phytophthora infestans (2.5 ppm), 4 (80-100); in the assay with Phytophthora infestans (10 ppm), 4 (80-100); in the assay on Phytophthora infestans (40 ppm), 2 (40-60).

Take `O=C(Nc1ccccc1)Nc1ccc(Oc2nsnc(Cl)c2=O)cc1` [Compound 29, 3-chloro-5-[4-(3-phenylureido)-phenoxy]-4H--1,2,6-thiadiazin-4-one]: the “Spore Germination Rating” value in the assay with Venturia inaequalis (1.0 ppm) is listed as 4 (80-100); with Venturia inaequalis (2.5 ppm), 4 (80-100); in the assay on Venturia inaequalis (10 ppm), 4 (80-100); in the assay with Venturia inaequalis (40 ppm), 0 (0-10); with Cladosporium cucumerinum (1.0 ppm) it was 2 (40-60); in the assay with Cladosporium cucumerinum (2.5 ppm), 2 (40-60). Moreover, the “Spore Germination Rating” value in the assay on Cladosporium cucumerinum (10 ppm) was 2 (40-60); with Cladosporium cucumerinum (40 ppm), 1 (10-40); with Phytophthora infestans (1.0 ppm), 4 (80-100); with Phytophthora infestans (2.5 ppm) it was 4 (80-100); in the assay with Phytophthora infestans (10 ppm), 4 (80-100); in the assay on Phytophthora infestans (40 ppm) it was 3 (60-80).

As to `O=c1c(Cl)nsnc1Oc1c(Cl)cc(Cl)cc1Cl` [Compound 30, 3-chloro-5-(2,4,6-trichlorophenoxy)-4H--1,2,6-thiadiazin-4-one], the “Spore Germination Rating” value in the assay on Venturia inaequalis (1.0 ppm) was 1 (10-40); in the assay with Venturia inaequalis (2.5 ppm) it was 0 (0-10); in the assay on Venturia inaequalis (10 ppm), 0 (0-10); in the assay with Venturia inaequalis (40 ppm), 0 (0-10); in the assay on Cladosporium cucumerinum (1.0 ppm) it was 0 (0-10); in the assay with Cladosporium cucumerinum (2.5 ppm) it was 0 (0-10). The “Spore Germination Rating” value in the assay with Cladosporium cucumerinum (10 ppm) is on record as 0 (0-10); in the assay on Cladosporium cucumerinum (40 ppm) it was 0 (0-10); in the assay with Phytophthora infestans (1.0 ppm), 4 (80-100); in the assay on Phytophthora infestans (2.5 ppm), 1 (10-40); with Phytophthora infestans (10 ppm) it was 0 (0-10); in the assay with Phytophthora infestans (40 ppm), 0 (0-10).

Source of the values: patent publication US4450269A, “Mono-5-substituted-3-chloro-4H-1,2,6-thiadiazin-4-one antifungal agents” (FMC Corporation, priority 1980, dated 1984).
